Measurements as given in article PMC12974487, “Inhibition of FicD-mediated AMPylation and deAMPylation by isoprenoid diphosphates” (Proceedings of the National Academy of Sciences of the …, 2026).
Substitutions are numbered along the chain they refer to.

Tests used:
FicD^L258D = target: T1, FicD^L258D (Homo sapiens, UniProt Q9BVA6, L258D); assay: Differential scanning fluorimetry (DSF) thermal shift with FicD^L258D; assay type: binding; conditions: for EC50: read-out: EC50 of DSF dose-response (ΔTm)
T1 construct: soluble ER luminal domain (residues 105 to 458) of wild-type human FicD and three mutants; 6xHis-Sumo (N, cleaved yes); made in house; host or cells: Rosetta(DE3) E. coli
T1 sequence (Q9BVA6 105-458 L258D): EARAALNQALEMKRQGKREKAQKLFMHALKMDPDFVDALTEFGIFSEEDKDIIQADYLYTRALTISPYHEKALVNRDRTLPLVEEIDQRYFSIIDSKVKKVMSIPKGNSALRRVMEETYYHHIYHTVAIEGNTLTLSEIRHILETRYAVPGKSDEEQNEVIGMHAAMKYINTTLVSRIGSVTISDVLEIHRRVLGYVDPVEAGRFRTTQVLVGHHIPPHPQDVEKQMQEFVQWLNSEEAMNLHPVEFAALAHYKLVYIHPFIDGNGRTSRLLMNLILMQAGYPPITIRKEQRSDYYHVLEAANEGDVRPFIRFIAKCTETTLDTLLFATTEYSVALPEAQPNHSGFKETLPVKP
Experimental: Differential Scanning Fluorimetry
Thermal shift assays were performed in Biorad CfX384 Touch Real-Time PCR Detection System […]
Reactions contained 50mM HEPES pH 7.4, 200mM NaCl, 200mM KCl, 200uM DTT, 5X Invitrogen Sypro Orange (Cat no. S6650), 8-9μM protein, and indicated nucleotide, cofactor, or small molecule in a total volume of 20uL. For every experiment ‘no protein’ controls were also included with the same reaction conditions. All reactions were performed in technical triplicates. Sealed plates containing reaction mixes were centrifuged for 1-5 min at 1000 RPM prior to temperature scanning (FRET channel), which was performed from 6°C […]
DSF data was analyzed with traditional methods automated in a Python package (https://pypi.org/project/instawell/). Briefly, for each temperature, the RFU values of technical triplicates are averaged. For each timepoint, the background fluorescence was subtracted using the RFU values of the ‘no protein’ control. […]
calculated. The melting temperature (Tm) is defined as the first derivative peak value. Data

FicD^WT = target: T2, FicD^WT (Homo sapiens, UniProt Q9BVA6); assay: MIDAS equilibrium dialysis/mass spectrometry metabolite screen, FicD^WT; assay type: binding; conditions: cutoff Q < 0.05 and |Log2 corrected fold change| > 2, metabolites 5 µM
T2 construct: soluble ER luminal domain (residues 105 to 458) of wild-type human FicD; 6xHis-Sumo (N, cleaved yes); made in house; host or cells: Rosetta(DE3) E. coli
T2 sequence (Q9BVA6 105-458): T1 sequence (Q9BVA6 105-458 L258D) with D154L
Excerpt: To identify small-molecule metabolite interactions with FicD, we applied an unbiased high-throughput screening approach known as MIDAS ([44]).

Row | Compound | maximal Tm shift at saturating ligand concentration (FicD^L258D; FicD^L258D, 5 mM MgCl2) | EC50 (FicD^L258D; FicD^L258D, 5 mM MgCl2) [µM] | binding to FicD^L258D by DSF (FicD^L258D; absence of MgCl2) | binding to FicD^L258D by DSF (FicD^L258D; presence of 5 mM MgCl2) | MIDAS protein-metabolite interaction (enrichment/depletion) (FicD^WT) | apparent binding (DSF EC50) fold tighter than that of ADP (FicD^L258D; FicD^L258D, 5 mM MgCl2) [fold]
1 | Nc1ncnc2c1ncn2[C@@H]1O[C@H](COP(=O)(O)OP(=O)(O)O)[C@@H](O)[C@H]1O [ADP] | ~ 10 °C | 370 | did not bind | binding | significantly enriched | –
2 | CC(C)=CCC/C(C)=C/CC/C(C)=C/COP(=O)(O)OP(=O)(O)O [FPP, farnesyl-pyrophosphate] | – | – | did not bind | bound | significantly enriched | 20 to 30
3 | CC(C)=CCC/C(C)=C/COP(=O)(O)OP(=O)(O)O [GPP, geranyl-pyrophosphate] | – | 14.8 | – | – | significantly enriched | 20 to 30
